Laboratory results as given in publication PMC8983325 (Protein & Cell, 2022).

Test system: SARS-CoV-2 variants of concern (Alpha, Beta, Delta and Omicron)
Test: microbe, parasite or virus in culture
Type: cell-based
Conditions: Severe acute respiratory syndrome coronavirus 2, VeroE6/TMPRSS2, read-out: EC50 against SARS-CoV-2 VOC

O=C(Nc1ccccc1Cl)c1sc(=S)n2c1[nH]c(=O)c1ccccc12 [F0213]
EC50: 2.2 to 4.8 µM
